Patent US8163909B2, “Substituted hydroxyethyl amine compounds as beta-secretase modulators and methods of use” (Amgen Inc., priority 2007, dated 2012)
Read-outs that look alike come from different tables or passages of the source.

Legend:
[1] = biological target: Beta Secretase enzyme (BACE) (Homo sapiens, UniProt P56817); assay: In vitro enzymatic BACE FRET (fluorescence resonance energy transfer) assay; type: biochemical;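 note: fluorescence read after 1 h with 50 nM quenched peptide substrate spanning the BACE cleavage site, in pH 4.2 acetate buffer containing 10% DMSO and nonionic detergent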
Chain of Beta Secretase enzyme (BACE) (P56817 46-501): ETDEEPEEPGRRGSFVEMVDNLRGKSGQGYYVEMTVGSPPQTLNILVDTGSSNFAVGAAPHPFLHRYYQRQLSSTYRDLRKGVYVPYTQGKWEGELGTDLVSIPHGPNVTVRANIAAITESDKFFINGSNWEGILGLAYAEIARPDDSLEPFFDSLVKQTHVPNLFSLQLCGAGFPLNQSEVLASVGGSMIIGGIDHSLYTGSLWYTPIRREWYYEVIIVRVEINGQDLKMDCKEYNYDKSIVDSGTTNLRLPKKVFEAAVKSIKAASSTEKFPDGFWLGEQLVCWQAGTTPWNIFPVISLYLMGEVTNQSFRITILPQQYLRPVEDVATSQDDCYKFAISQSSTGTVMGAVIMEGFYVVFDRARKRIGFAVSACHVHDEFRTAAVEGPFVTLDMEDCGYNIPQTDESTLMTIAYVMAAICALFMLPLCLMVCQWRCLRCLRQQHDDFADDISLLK

[2] = system: Aβ40 in conditioned medium of cells stably expressing Amyloid Precursor Protein (APP); assay: In vitro BACE cell-based assay (Aβ40 in conditioned medium, sandwich ELISA);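 note: compounds added as a dilution series, secreted peptide quantified by europium time-resolved fluorescence readout, potency fitted from percent of control versus compound concentration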
[3] = Table 1, read-out: BACE1 FRET assay
[4] = Homo sapiens, HEK293, Table 1, HEK cells, read-out: HEK cell assay
[5] = BACE enzyme FRET assay, read-out: BACE1 FRET assay (IC50)
[6] = Homo sapiens, HEK293, HEK cells, cell-based assay, read-out: HEK cell assay (IC50)
[7] = BACE enzyme assay, read-out: BACE1 FRET assay (IC50)
[8] = BACE enzyme assay, IC50's in uM, read-out: BACE1 FRET assay

For `CC(=O)N[C@@H](Cc1ccc(F)c(Br)c1)[C@H](O)CN(C)[C@H]1CC2(CCC2)Oc2ncc(CC(C)(C)C)cc21` [compound 354], the IC50 [1, 3] was 4.78 µM and the IC50 [2, 4] was 3.49 µM.
Work on `CO[C@H](C)C(=O)N[C@@H](Cc1cccc(F)c1)[C@H](O)CN[C@H]1CC2(CCC2)Oc2ncc(CC(C)(C)F)cc21` [compound 301] yielded an IC50 [1, 5] of 0.00781 µM and an IC50 [2, 6] of 0.00699 µM.
Compound `CC(C)(C)Cc1cnc2c(c1)C(NCC(O)C(Cc1ccc(F)cc1)NC(=O)CF)CC1(CC(O)C1)O2` [compound 230, N-((1S,2R)-3-(((1s,3S,4′S)-6′-(2,2-dimethylpropyl)-3-hydroxy-3′,4′-dihydrospiro[cyclobutane-1,2′-pyrano[2,3-b]pyridin]-4′-yl)amino)-1-((4-fluorophenyl)methyl)-2-hydroxypropyl)-2-fluoroacetamide] has an IC50 [1, 5] of 0.00424 µM and an IC50 [2, 6] of 0.01 µM.
Work on `CC(C)(C)Cc1cnc2c(c1)[C@@H](NC[C@@H](O)[C@H](Cc1ccc3c(c1)OCO3)NC(=O)[C@H]1CCCO1)CC1(CCC1)O2` [compound 454, (2R)-N-((1S,2R)-1-(1,3-benzodioxol-5-ylmethyl)-3-(((4′S)-6′-(2,2-dimethylpropyl)-3′,4′-dihydrospiro[cyclobutane-1,2′-pyrano[2,3-b]pyridin]-4′-yl)amino)-2-hydroxypropyl)tetrahydro-2-furancarboxamide] yielded an IC50 ([1]; Table 2, read-out: BACE1 FRET assay) of 0.02 µM and an IC50 ([2]; Homo sapiens, HEK293, Table 2, HEK cells, read-out: HEK cell assay) of 0.027 µM.
Work on `COCC(=O)N[C@@H](Cc1cc(F)cc(F)c1)[C@H](O)CN[C@H]1CC2(CCC2)Oc2ncc(CC(C)(C)C#N)cc21` [compound 92] yielded an IC50 [1, 7] of 0.00325 µM and an IC50 [2, 6] of 0.00621 µM.
Work on `COCC(=O)N[C@@H](Cc1ccc2c(c1)OCO2)[C@H](O)CN[C@H]1CC2(CCC2)Oc2ncc(CC(C)C)cc21` [compound 334] yielded an IC50 [1, 3] of 0.048 µM and an IC50 [2, 4] of 0.0672 µM.
Compound `CC(=O)N[C@@H](Cc1ccc(F)c(F)c1)[C@H](O)CN[C@H]1CC2(CCC2)Oc2ncc([C@H](F)C(C)(C)C)cc21` [compound 177] has an IC50 [1, 7] of 0.00217 µM and an IC50 [2, 6] of 0.00934 µM.
For `CC(=O)N[C@@H](Cc1ccc(F)cc1)[C@H](O)CN[C@H]1CC2(CCC2)Oc2ncc(CC(C)(F)F)cc21` [compound 274], the IC50 [1, 5] was 0.0297 µM and the IC50 [2, 6] was 0.0727 µM.
`COCC(=O)N[C@@H](Cc1ccc(F)cc1)[C@H](O)CN[C@H]1CC2(CCC2)Oc2c(-c3ccncc3)cc(CC(C)(C)F)cc21` [compound 538] was tested, and the IC50 ([1]; BACE enzyme assay, read-out: BACE1 FRET assay) was 0.047 µM and the IC50 ([2]; Homo sapiens, HEK293, HEK cells, read-out: HEK cell assay) was 0.043 µM.
`C#Cc1cc(C[C@H](NC(=O)COC)[C@H](O)CN[C@H]2CC3(CCC3)Oc3ncc(CC(C)(C)C)cc32)cc(-c2nccs2)c1` [compound 889] was tested, and the IC50 [1, 8] was 0.653 µM and the IC50 ([2]; Homo sapiens, HEK293, cell-based assay, HEK cells, IC50's in uM, read-out: HEK cell assay) was 0.989 µM.
`CC(=O)N[C@@H](Cc1ccccc1)[C@H](O)CN[C@H]1CC2(CCC2)Oc2c1cc(CC(C)(C)C)nc2N1CCC1` [compound 128] showed an IC50 [1, 7] of 0.0332 µM and an IC50 [2, 6] of 0.016 µM.
In the case of `CC(=O)CC(=O)N[C@@H](Cc1ccc2c(c1)OCO2)[C@H](O)CN[C@H]1CC2(CCC2)Oc2ncc(CC(C)(C)C)cc21` [compound 308], the IC50 [1, 5] is reported as 0.0244 µM and the IC50 [2, 6] is reported as 0.0209 µM.
Work on `CC(=O)N[C@@H](Cc1ccc2c(c1)OCO2)[C@H](O)CN[C@H]1CC2(CCC2)Oc2ncc(CC(C)(C)C#N)cc21` [compound 88] yielded an IC50 [1, 7] of 0.0485 µM and an IC50 [2, 6] of 0.016 µM.
Work on `COC(C)C(=O)NC(Cc1ccc2c(c1)OCO2)C(O)CNC1CC2(CC(O)C2)Oc2ccc(CC(C)(C)C)cc21` [compound 269, (2R)—N-((1S,2R)-1-(1,3-benzodioxol-5-ylmethyl)-3-(((2r,3′R,4S)-6-(2,2-dimethylpropyl)-3′-hydroxy-3,4-dihydrospiro[chromene-2,1′-cyclobutan]-4-yl)amino)-2-hydroxypropyl)-2-(methyloxy)propanamide] yielded an IC50 [1, 5] of 0.242 µM and an IC50 ([2]; HEK cells, cell-based assay, read-out: HEK cell assay (IC50)) of 0.103 µM.
For `CO[C@H](C)C(=O)N[C@@H](Cc1ccc2c(c1)OCO2)[C@H](O)CN[C@H]1CC2(CCC2)Oc2ncc([C@H](F)C(C)(C)C)cc21` [compound 330], the IC50 [1, 3] was 0.0221 µM and the IC50 [2, 4] was 0.0439 µM.
For `CC(=O)N[C@@H](Cc1cccc(F)c1)[C@H](O)CN[C@H]1CC2(CCC2)Oc2c(F)cc(CC(C)(C)C)cc21` [compound 220], the IC50 [1, 5] was 0.00405 µM and the IC50 [2, 6] was 0.0116 µM.
With `CCOCC(=O)N[C@@H](Cc1ccc2c(c1)OCO2)[C@H](O)CN[C@H]1CC2(CCC2)Oc2ncc(CC(C)C)cc21` [compound 720] the IC50 ([1]; BACE enzyme assay IC50, read-out: BACE1 FRET assay) was 0.057 µM and the IC50 ([2]; Homo sapiens, HEK293, HEK cell-based assay IC50, read-out: HEK cell assay) was 0.134 µM.
With `CNc1nc(CC(C)(C)C)cc2c1OC1(CCC1)C[C@@H]2NC[C@@H](O)[C@H](Cc1ccc2c(c1)OCO2)NC(=O)[C@@H](C)OC` [compound 136] the IC50 [1, 7] was 0.0411 µM and the IC50 [2, 6] was 0.0163 µM.
For `COc1cc(C[C@H](NC(C)=O)[C@H](O)CN[C@H]2CC3(CCC3)Oc3ncc(CC(C)(C)C)cc32)ccc1F` [compound 78], the IC50 [1, 7] was 0.00449 µM and the IC50 [2, 6] was 0.00763 µM.
In the case of `CO[C@H](C)C(=O)N[C@@H](Cc1cc(F)cc(F)c1)[C@H](O)CN[C@H]1CC2(CCC2)Oc2ncc(CC(F)(F)F)cc21` [compound 346], the IC50 [1, 3] is reported as 0.0102 µM and the IC50 [2, 4] is reported as 0.0471 µM.
Work on `CC(C)(C)Cc1cnc2c(c1)[C@@H](NC[C@@H](O)[C@H](Cc1cccc(F)c1)NC(=O)C(C)(Cl)Cl)CC1(CCC1)O2` [compound 106] yielded an IC50 [1, 7] of 0.0669 µM and an IC50 [2, 6] of 0.834 µM.
In the case of `CO[C@H](C)C(=O)N[C@@H](Cc1cccc(C#N)c1)[C@H](O)CN[C@H]1CC2(CCC2)Oc2ncc(CC(C)(C)C)cc21` [compound 56], the IC50 [1, 7] is reported as 0.00263 µM and the IC50 [2, 6] is reported as 0.00305 µM.
Work on `C#CCCC(=O)N[C@@H](Cc1ccc2c(c1)OCO2)[C@H](O)CN[C@H]1CC2(CCC2)Oc2ncc(CC(C)(C)C)cc21` [compound 843] yielded an IC50 [1, 8] of 0.044 µM and an IC50 ([2]; Homo sapiens, HEK293, HEK cell-based assay, IC50's in uM, read-out: HEK cell assay) of 0.065 µM.
Work on `CC(=O)NC(Cc1ccc(F)cc1)C(O)CNC1CC2(CC(CO)C2)Oc2ncc(CC(C)(C)C)cc21` [compound 259, N-((1S,2R)-3-(((1s,3R,4′S)-6′-(2,2-dimethylpropyl)-3-(hydroxymethyl)-3′,4′-dihydrospiro[cyclobutane-1,2′-pyrano[2,3-b]pyridin]-4′-yl)amino)-1-((4-fluorophenyl)methyl)-2-hydroxypropyl)acetamide] yielded an IC50 [1, 5] of 16 µM and an IC50 [2, 6] of 3.33 µM.
In the case of `CC(C)(C)Cc1cnc2c(c1)[C@@H](NC[C@@H](O)[C@H](Cc1ccc3c(c1)OCO3)NC(=O)CF)CC1(CCC1)O2` [compound 283], the IC50 [1, 5] is reported as 0.00751 µM and the IC50 [2, 6] is reported as 0.019 µM.
Compound `COC(C)C(=O)NC(Cc1ccc2c(c1)OCO2)C(O)CNC1CC2(CC(C)C2)Oc2ncc(CC(C)(C)C)cc21` [compound 239, (2R)—N-((1S,2R)-1-(1,3-benzodioxol-5-ylmethyl)-3-(((1s,3R,4′S)-6′-(2,2-dimethylpropyl)-3-methyl-3′,4′-dihydrospiro[cyclobutane-1,2′-pyrano[2,3-b]pyridin]-4′-yl)amino)-2-hydroxypropyl)-2-(methyloxy)propanamide] has an IC50 [1, 5] of 0.0178 µM and an IC50 [2, 6] of 0.0346 µM.
With `C[C@@H](O)C(=O)N[C@@H](Cc1ccc(F)cc1)[C@H](O)CN[C@H]1CC2(CCC2)Oc2ncc(CC(C)(C)C)cc21` [compound 157] the IC50 [1, 7] was 0.0151 µM and the IC50 [2, 6] was 0.0217 µM.
`CO[C@@H](C)C(=O)N[C@@H](Cc1ccc(F)cc1)[C@H](O)CN[C@H]1CC2(CCC2)Oc2c(F)cc(CC(C)(C)C#N)cc21` [compound 173] gave an IC50 [1, 7] of 0.0364 µM and an IC50 [2, 6] of 0.0546 µM.
In the case of `COCC(=O)N[C@@H](Cc1cc(F)cc(F)c1)[C@H](O)CN[C@H]1CC2(CCC2)Oc2ncc(CC(F)(F)F)cc21` [compound 348], the IC50 [1, 3] is reported as 0.00688 µM and the IC50 [2, 4] is reported as 0.0182 µM.
In the case of `CC(=O)NC(Cc1ccc(F)cc1)C(O)CNC1CC2(CCC2)Oc2ncc(CC(C)C(F)F)cc21` [compound 198, N-((1S,2R)-3-(((4′S)-6′-((2S)-3,3-difluoro-2-methylpropyl)-3′4′-dihydrospiro[cyclobutane-1,2′-pyrano[2,3-b]pyridin]-4′-yl)amino)-1-((4-fluorophenyl)methyl)-2-hydroxypropyl)acetamide], the IC50 [1, 5] is reported as 0.029 µM and the IC50 [2, 6] is reported as 0.0321 µM.
`COCC(=O)NC(Cc1cccc(F)c1)C(O)CNC1CC2(CC(O)C2)Oc2cnccc21` [compound 235, N-((1S,2R)-1-((3-fluorophenyl)methyl)-2-hydroxy-3-(((1s,3S,4′S)-3-hydroxy-3′,4′-dihydrospiro[cyclobutane-1,2′-pyrano[2,3-c]pyridin]-4′-yl)amino)propyl)-2-(methyloxy)acetamide] was tested, and the IC50 [1, 5] was 0.581 µM and the IC50 [2, 6] was 0.452 µM.
Compound `COC(C(=O)N[C@@H](Cc1cccc(F)c1)[C@H](O)CN[C@H]1CC2(CCC2)Oc2ncc(CC(C)(C)C)cc21)C(F)(F)F` (some centres unmarked) [compound 65] has an IC50 [1, 7] of 0.0343 µM and an IC50 [2, 6] of 0.127 µM.
`COCC(=O)N[C@@H](Cc1ccc(F)c(OC(F)F)c1)[C@H](O)CN[C@H]1CC2(CCC2)Oc2ncc(CC(C)(C)C)cc21` [compound 214] gave an IC50 [1, 5] of 0.00877 µM and an IC50 [2, 6] of 0.00903 µM.
`CC(C)(C)Cc1cnc2c(c1)[C@@H](NC[C@@H](O)[C@H](Cc1ccc(F)cc1)NC(=O)[C@H](O)C(F)(F)F)CC1(CCC1)O2` [compound 68] gave an IC50 [1, 7] of 0.0486 µM and an IC50 [2, 6] of 0.0553 µM.
For `COc1cc(C[C@H](NC(C)=O)[C@H](O)CN[C@H]2CC3(CCC3)Oc3ncc(CC(C)(C)C(F)F)cc32)ccc1Cl` [compound 216], the IC50 [1, 5] was 0.016 µM and the IC50 [2, 6] was 0.0249 µM.
In the case of `CO[C@H](C)C(=O)N[C@@H](Cc1ccc(F)cc1)[C@H](O)CN[C@H]1CC2(CCC2)Oc2ncc(CC(C)C)cc21` [compound 333], the IC50 [1, 3] is reported as 0.029 µM and the IC50 [2, 4] is reported as 0.0479 µM.
Compound `CC(=O)N[C@@H](Cc1ccccc1)[C@H](O)CN[C@H]1CC2(CCC2)Oc2ncc(CC(C)(F)F)cc21` [compound 272] has an IC50 [1, 5] of 0.0151 µM and an IC50 [2, 6] of 0.0147 µM.
